Like-named read-outs stand apart in the source and are kept apart here. Non-standard residues stand in square brackets, D forms with d. Residues, ends and D or L forms follow the SMILES beside them. *: point of attachment. DOTA = O=C(O)CN1CCN(CC(=O)O)CCN(CC(=O)*)CCN(CC(=O)O)CC1; Nle = CCCC[C@H](N)C(=O)O
Columns and labels:
MC1R (B16-F1 cells) = target: T1, MC1R (B16-F1 cells) (Mus musculus, UniProt Q01727); assay: Competition binding assay with [^125I]-NDP-MSH, mouse B16-F1 melanoma cells; settings: B16-F1 cells
T1 construct: endogenous in cells; host or cells: mouse B16-F1 melanoma cells
T1 sequence (Q01727 whole entry): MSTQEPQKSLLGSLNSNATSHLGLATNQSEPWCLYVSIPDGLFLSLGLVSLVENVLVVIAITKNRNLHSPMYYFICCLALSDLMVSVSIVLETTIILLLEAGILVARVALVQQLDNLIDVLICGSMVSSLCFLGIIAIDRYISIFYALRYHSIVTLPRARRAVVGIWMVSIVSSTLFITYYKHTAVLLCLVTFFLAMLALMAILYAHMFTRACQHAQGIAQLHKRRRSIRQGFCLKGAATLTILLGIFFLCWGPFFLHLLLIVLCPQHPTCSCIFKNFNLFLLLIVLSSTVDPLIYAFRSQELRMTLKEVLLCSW
Procedure: (§1) Triplicates of 100-µL volumes of B16-F1 or HBL cell suspensions adjusted to 4 × 10^6/mL were incubated in 96-well U-bottom microplates (Falcon 3077). The binding medium consisted of MEM with Earle’s salts, 0.2% BSA, and 0.3 mM 1,10-phenanthroline. This binding medium was called mouse binding medium (MBM). Triplicates of competitor peptide solution (50 µL) yielding final concentrations ranging from 1 × 10^−6 to 1 × 10^−12 M were added. [^125I]NDP-MSH (50,000 cpm) in 50 µL was finally added to each well. The plates were incubated at 15°C for 3 h for B16-F1 cells and at 37°C for 2 h for HBL cells. The incubation was stopped by covering the plates with ice for 10 min. A cell harvester was used to collect cell-bound radioactivity on filters (Packard Unifilter-96 GF/B). The collected radioactivity was counted on a TopCount scintillation counter (Packard) after addition of 50 µL Microscint-20 scintillation cocktail (Perkin Elmer). The IC50 values were calculated with the Prism 6 software (GraphPad Software Inc., San Diego CA, USA).
(§2) The binding affinity of the peptides to MC1R was assessed by competition binding assays using [^125I]-NDP-MSH as radioligand and both murine B16-F1 and human HBL cells.

MC1R (HBL cells) = target: T2, MC1R (HBL cells) (Homo sapiens, UniProt Q01726); assay: Competition binding assay with [^125I]-NDP-MSH, human HBL melanoma cells; settings: HBL cells
T2 construct: endogenous in cells; host or cells: human HBL melanoma cell line
T2 sequence (Q01726 whole entry): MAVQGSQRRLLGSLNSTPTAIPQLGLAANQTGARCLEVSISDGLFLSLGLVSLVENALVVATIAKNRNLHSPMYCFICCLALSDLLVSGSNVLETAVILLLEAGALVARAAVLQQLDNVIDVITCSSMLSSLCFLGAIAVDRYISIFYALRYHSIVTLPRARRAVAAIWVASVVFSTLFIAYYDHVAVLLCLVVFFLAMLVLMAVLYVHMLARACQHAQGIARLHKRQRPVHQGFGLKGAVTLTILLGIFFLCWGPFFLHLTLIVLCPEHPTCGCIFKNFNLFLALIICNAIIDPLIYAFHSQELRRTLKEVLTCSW
Procedure: as §1, §2

B16-F1 cells = assay: Internalization by cultured B16-F1 cells; assay type: cell-based, mouse; settings: 37°C, 0.5, 2 and 3.5 h, 74 kBq radioligand
Procedure: B16-F1 cells were seeded in six-well plates and incubated overnight in MEM at 37°C. For the internalization experiments, MEM was replaced by 1 mL MBM (see above) as internalization buffer. After a 1-h incubation at 37°C, 74 kBq of radioligand (^111In-labeled peptides) was added, and the plates were incubated for different time periods. Non-specific internalization was determined by addition of 50 µL of a 1 µM α-MSH solution to the incubation mixture. After the desired incubation times, the cells were extensively washed with MBM kept at 37°C to remove excess radioligand. Incubation in 2 mL ice-cold acid buffer (acetate-buffered Hank’s balanced salt solution, pH 5) for 10 min allowed dissociation of surface-bound ligand. After collection of the acid buffer fraction, the cells were rinsed once with cold MBM, and the washings were pooled with the acid buffer fraction. The cells were washed again with MBM kept at 37°C, lysed in a 1% Triton X-100 solution, and finally transferred to tubes for quantification. The radioactivity of all collected fractions was measured in a γ-counter. A counting plate underwent the same treatment as the plate incubated for the longest time, but its cells were detached with 0.02% EDTA in PBS instead of being lysed with the Triton X-100 solution. Cells from three wells were collected, counted, and thus allowed for normalization of the results obtained. Results were expressed as percent of the added dose per million cells.
Figure 3 Determination of internalization of [^111In] DOTA-NAP-D-Asp-D-Asp (A) and [^111In]DOTA-Phospho-MSH2-9 (B) by cultured B16-F1 cells exposed to the peptides at 37°C for 0.5, 2, and 3.5 h. Surface-bound radioligand was released by an acid buffer wash, and internalized radioligand was determined by lysing cells with detergent. Results are expressed in percent of the added dose per million cells.

[1] = Biodistribution of ^111In-labeled peptides in B16-F1 melanoma-bearing mice; assay type: in vivo, mouse (B6D2F1); settings: female, iv, total radioactivity, ^111In-labeled peptide, 185 kBq i.v., mean ± SEM of three experiments, n = 5 animals each
Procedure, shortened: (§3)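 B16-F1 cells (about 5 × 10^5) grown s.c. in female B6D2F1 mice; 7 days later 185 kBq ^111In-labeled peptide injected i.v. Tissues collected at 4, 24 and 48 h and γ-counted, uptake given as %ID/g (mean ± SEM); non-specific uptake from co-injection of 50 µg α-MSH. Urine metabolites analysed by RP-HPLC/γ-detection.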

[2] = system: B16-F1 tumor-bearing mice; assay: as above; assay type: in vivo, mouse (B6D2F1); settings: in vivo
Procedure, shortened: as §3

[3] = B6D2F1 (C57BL/6 × DBA/2F1 hybrids), mouse, blood, read-out: Blood uptake
[4] = B6D2F1 (C57BL/6 × DBA/2F1 hybrids), mouse, muscle, read-out: Muscle uptake
[5] = B6D2F1 (C57BL/6 × DBA/2F1 hybrids), mouse, skin, read-out: Skin uptake
[6] = B6D2F1 (C57BL/6 × DBA/2F1 hybrids), mouse, tumor, read-out: Tumor uptake
[7] = B6D2F1, mouse, bone, read-out: Bone uptake
[8] = B6D2F1, mouse, heart, read-out: Heart uptake
[9] = B6D2F1, mouse, kidney, read-out: Kidney uptake
[10] = B6D2F1, mouse, liver, read-out: Liver uptake
[11] = B6D2F1, mouse, lung, read-out: Lung uptake
[12] = B6D2F1, mouse, pancreas, read-out: Pancreas uptake
[13] = B6D2F1, mouse, small intestines, read-out: Small intestines uptake
[14] = B6D2F1, mouse, spleen, read-out: Spleen uptake
[15] = B6D2F1, mouse, stomach, read-out: Stomach uptake

CCCC[C@H](NC(C)=O)C(=O)N[C@@H](CC(=O)O)C(=O)N[C@@H](Cc1c[nH]cn1)C(=O)N[C@H](Cc1ccccc1)C(=O)N[C@@H](CCCNC(=N)N)C(=O)N[C@@H](Cc1c[nH]c2ccccc12)C(=O)NCC(=O)N[C@@H](CCCCNC(=O)CN1CCN(CC(=O)O)CCN(CC(=O)O)CCN(CC(=O)O)CC1)C(=O)N[C@H](CC(=O)O)C(=O)N[C@H](CC(=O)O)C(=O)O [DOTA-NAP-D-Asp-D-Asp, Ac-Nle-Asp-His-D-Phe-Arg-Trp-Gly-Lys(DOTA)-D-Asp-D-Asp-OH] (Ac-[Nle]DH[dF]RWGK(DOTA)[dD][dD]-OH)
Reduction of MC1R affinity compared to DOTA-NAP-amide (MC1R (B16-F1 cells)): ~ 10 fold
Reduction of MC1R affinity compared to DOTA-NAP-amide (MC1R (HBL cells)): ~ 10 fold
Internalization profile (in words) (B16-F1 cells): rapid internalization
tissue uptake at 4 h [1, 3]: 0.01 %ID/g
tissue uptake at 24 h [1, 3]: 0.01 %ID/g
tissue uptake at 48 h [1, 3]: 0.01 %ID/g
tissue uptake at 48 h ([1]; B6D2F1 (C57BL/6 × DBA/2F1 hybrids), mouse, bone, read-out: Bone uptake): 0.07 ± 0.01 %ID/g
tissue uptake at 4 h [1, 4]: 0.02 %ID/g
tissue uptake at 24 h [1, 4]: 0.02 %ID/g
tissue uptake at 48 h [1, 4]: 0.03 %ID/g
tissue uptake at 4 h [1, 5]: 0.06 ± 0.01 %ID/g
tissue uptake at 24 h [1, 5]: 0.06 %ID/g
tissue uptake at 48 h [1, 5]: 0.04 %ID/g
tissue uptake at 24 h [1, 6]: 0.63 ± 0.03 %ID/g
tissue uptake at 48 h [1, 6]: 0.23 ± 0.02 %ID/g
tissue uptake at 4 h [1, 7]: 0.07 ± 0.01 %ID/g
tissue uptake at 24 h [1, 7]: 0.06 ± 0.01 %ID/g
tissue uptake at 4 h [1, 8]: 0.03 %ID/g
tissue uptake at 24 h [1, 8]: 0.03 %ID/g
tissue uptake at 48 h [1, 8]: 0.03 %ID/g
tissue uptake at 24 h [1, 9]: 4.09 ± 0.16 %ID/g
tissue uptake at 48 h [1, 9]: 2.02 ± 0.08 %ID/g
tissue uptake at 4 h [1, 10]: 0.1 %ID/g
tissue uptake at 24 h [1, 10]: 0.09 %ID/g
tissue uptake at 48 h [1, 10]: 0.07 %ID/g
tissue uptake at 4 h [1, 11]: 0.06 %ID/g
tissue uptake at 24 h [1, 11]: 0.04 %ID/g
tissue uptake at 48 h [1, 11]: 0.03 %ID/g
tissue uptake at 4 h [1, 12]: 0.03 %ID/g
tissue uptake at 24 h [1, 12]: 0.02 %ID/g
tissue uptake at 48 h [1, 12]: 0.03 %ID/g
tissue uptake at 4 h [1, 13]: 0.05 ± 0.01 %ID/g
tissue uptake at 24 h [1, 13]: 0.04 ± 0.01 %ID/g
tissue uptake at 48 h [1, 13]: 0.03 %ID/g
tissue uptake at 4 h [1, 14]: 0.07 %ID/g
tissue uptake at 24 h [1, 14]: 0.07 %ID/g
tissue uptake at 48 h [1, 14]: 0.07 %ID/g
tissue uptake at 4 h [1, 15]: 0.11 %ID/g
tissue uptake at 24 h [1, 15]: 0.03 %ID/g
tissue uptake at 48 h [1, 15]: 0.02 %ID/g
Kidney uptake/retention compared with reference (in words) [2]: markedly increased
Tumor uptake lower than that of reference ([2]; melanoma tumors): ~ 4 fold
